Assay results taken from ChEMBL document CHEMBL1140860, “Synthesis and evaluation of dihydroartemisinin and dihydroartemisitene acetal dimers showing anticancer and antiprotozoal activity” (Bioorg Med Chem, 2009).

Columns and labels:
[1] = system: CCRF-CEM; assay: Growth inhibition of human CCRF-CEM cells after 48 hrs by sulforhodamine B assay; assay type: functional
[2] = Selectivity index, ratio of TC50 for african green monkey (Cercopithecus aethiops) Vero cells to IC50 for chloroquine-sensitive Plasmodium falciparum D6; assay type: toxicity, cell-based
[3] = system: EKVX; assay: Growth inhibition of human EKVX cells after 48 hrs by sulforhodamine B assay; assay type: functional
[4] = system: MOLT-4; assay: Growth inhibition of human MOLT4 cells after 48 hrs by sulforhodamine B assay; assay type: functional; settings: MOLT-4, 48 h
[5] = system: HCT-116; assay: Growth inhibition of human HCT116 cells after 48 hrs by sulforhodamine B assay; assay type: functional; settings: HCT-116, 48 h
[6] = system: NCI-H322M; assay: Growth inhibition of human NCI-H322M cells after 48 hrs by sulforhodamine B assay; assay type: functional
[7] = system: NCI/ADR-RES; assay: Growth inhibition of human NCI/ADR-RES cells after 48 hrs by sulforhodamine B assay; assay type: functional
[8] = system: 786-0; assay: Growth inhibition of human 786-0 cells after 48 hrs by sulforhodamine B assay; assay type: functional; settings: 786-0, 48 h
[9] = system: NCI-H522; assay: Growth inhibition of human NCI-H522 cells after 48 hrs by sulforhodamine B assay; assay type: functional; settings: NCI-H522, 48 h
[10] = system: Malme-3M; assay: Growth inhibition of human MALME-3M cells after 48 hrs by sulforhodamine B assay; assay type: functional
[11] = system: MDA-MB-231; assay: Growth inhibition of human MDA-MB-231 cells after 48 hrs by sulforhodamine B assay; assay type: functional; settings: MDA-MB-231, 48 h
[12] = system: MDA-N; assay: Growth inhibition of human MDA-N cells after 48 hrs by sulforhodamine B assay; assay type: functional
[13] = system: Plasmodium falciparum; assay: Antimalarial activity after 72 hrs against chloroquine-resistant Plasmodium falciparum W2 infected erythrocytes by LDH assay; assay type: functional, organism-based; settings: W2, 72 h
[14] = system: SF-268; assay: Growth inhibition of human SF268 cells after 48 hrs by sulforhodamine B assay; assay type: functional; settings: SF-268, 48 h
[15] = system: SW-620; assay: Growth inhibition of human SW620 cells after 48 hrs by sulforhodamine B assay; assay type: functional; settings: SW-620, 48 h
[16] = system: SR; assay: Growth inhibition of human SR cells after 48 hrs by sulforhodamine B assay; assay type: functional
[17] = system: SK-MEL-2; assay: Growth inhibition of human SK-MEL-2 cells after 48 hrs by sulforhodamine B assay; assay type: functional; settings: SK-MEL-2, 48 h
[18] = system: UO-31; assay: Growth inhibition of human UO31 cells after 48 hrs by sulforhodamine B assay; assay type: functional; settings: UO-31, 48 h
[19] = system: CAKI-1; assay: Growth inhibition of human Caki1 cells after 48 hrs by sulforhodamine B assay; assay type: functional; settings: CAKI-1, 48 h
[20] = system: A498; assay: Growth inhibition of human A498 cells after 48 hrs by sulforhodamine B assay; assay type: functional; settings: A498, 48 h
[21] = system: Plasmodium falciparum; assay: Antimalarial activity after 72 hrs against chloroquine-sensitive Plasmodium falciparum D6 infected in erythrocytes by LDH assay; assay type: functional, organism-based; settings: D6, 72 h
[22] = system: SN12C; assay: Growth inhibition of human SN12C cells after 48 hrs by sulforhodamine B assay; assay type: functional
[23] = system: OVCAR-3; assay: Growth inhibition of human OVCAR-3 cells after 48 hrs by sulforhodamine B assay; assay type: functional; settings: OVCAR-3, 48 h
[24] = system: IGROV-1; assay: Growth inhibition of human IGROV1 cells after 48 hrs by sulforhodamine B assay; assay type: functional; settings: IGROV-1, 48 h
[25] = system: MCF7; assay: Growth inhibition of human MCF7 cells after 48 hrs by sulforhodamine B assay; assay type: functional; settings: MCF7, 48 h
[26] = system: RXF 393; assay: Growth inhibition of human RXF393 cells after 48 hrs by sulforhodamine B assay; assay type: functional; settings: RXF 393, 48 h
[27] = system: NCI-H23; assay: Growth inhibition of human NCI-H23 cells after 48 hrs by sulforhodamine B assay; assay type: functional; settings: NCI-H23, 48 h
[28] = system: BT-549; assay: Growth inhibition of human BT549 cells after 48 hrs by sulforhodamine B assay; assay type: functional; settings: BT-549, 48 h
[29] = system: M14; assay: Growth inhibition of human M14 cells after 48 hrs by sulforhodamine B assay; assay type: functional; settings: M14, 48 h
[30] = system: SNB-19; assay: Growth inhibition of human SNB19 cells after 48 hrs by sulforhodamine B assay; assay type: functional; settings: SNB-19, 48 h
[31] = system: HCT-15; assay: Growth inhibition of human HCT15 cells after 48 hrs by sulforhodamine B assay; assay type: functional; settings: HCT-15, 48 h
[32] = system: SK-OV-3; assay: Growth inhibition of human SKOV3 cells after 48 hrs by sulforhodamine B assay; assay type: functional; settings: SK-OV-3, 48 h
[33] = system: HOP-92; assay: Growth inhibition of human HOP92 cells after 48 hrs by sulforhodamine B assay; assay type: functional; settings: HOP-92, 48 h
[34] = system: HT-29; assay: Growth inhibition of human HT-29 cells after 48 hrs by sulforhodamine B assay; assay type: functional; settings: HT-29, 48 h
[35] = system: OVCAR-4; assay: Growth inhibition of human OVCAR4 cells after 48 hrs by sulforhodamine B assay; assay type: functional; settings: OVCAR-4, 48 h
[36] = system: UACC-257; assay: Growth inhibition of human UACC257 cells after 48 hrs by sulforhodamine B assay; assay type: functional; settings: UACC-257, 48 h
[37] = system: TK-10; assay: Growth inhibition of human TK10 cells after 48 hrs by sulforhodamine B assay; assay type: functional; settings: TK-10, 48 h
[38] = Growth inhibition of human Hs 578T cells after 48 hrs by sulforhodamine B assay; assay type: functional
[39] = system: U-251; assay: Growth inhibition of human U251 cells after 48 hrs by sulforhodamine B assay; assay type: functional; settings: U-251, 48 h
[40] = system: A549; assay: Growth inhibition of human A549 cells after 48 hrs by sulforhodamine B assay; assay type: functional; settings: A549, 48 h
[41] = Selectivity index, ratio of TC50 for african green monkey (Cercopithecus aethiops) Vero cells to IC50 for chloroquine-resistant Plasmodium falciparum W2; assay type: toxicity, cell-based
[42] = system: COLO 205; assay: Growth inhibition of human COLO205 cells after 48 hrs by sulforhodamine B assay; assay type: functional; settings: COLO 205, 48 h
[43] = system: KM12; assay: Growth inhibition of human KM12 cells after 48 hrs by sulforhodamine B assay; assay type: functional; settings: KM12, 48 h
[44] = Cytotoxicity against african green monkey Vero cells after 48 hrs by neutral red assay; assay type: cell-based; settings: chlorocebus sabaeus, read-out: TC50
[45] = system: PC-3; assay: Growth inhibition of human PC3 cells after 48 hrs by sulforhodamine B assay; assay type: functional; settings: PC-3, 48 h
[46] = system: MDA-MB-435; assay: Growth inhibition of human MDA-MB-435 cells after 48 hrs by sulforhodamine B assay; assay type: functional; settings: MDA-MB-435, 48 h
[47] = system: K562; assay: Growth inhibition of human K562 cells after 48 hrs by sulforhodamine B assay; assay type: functional; settings: K562, 48 h
[48] = system: SK-MEL-5; assay: Growth inhibition of human SK-MEL-5 cells after 48 hrs by sulforhodamine B assay; assay type: functional; settings: SK-MEL-5, 48 h
[49] = system: HOP-62; assay: Growth inhibition of human HOP62 cells after 48 hrs by sulforhodamine B assay; assay type: functional; settings: HOP-62, 48 h
[50] = system: OVCAR-8; assay: Growth inhibition of human OVCAR8 cells after 48 hrs by sulforhodamine B assay; assay type: functional; settings: OVCAR-8, 48 h
[51] = Growth inhibition of human […] cells after 48 hrs by sulforhodamine B assay; assay type: functional
[52] = system: NCI-H226; assay: Growth inhibition of human NCI-H226 cells after 48 hrs by sulforhodamine B assay; assay type: functional; settings: NCI-H226, 48 h
[53] = system: SNB-75; assay: Growth inhibition of human SNB75 cells after 48 hrs by sulforhodamine B assay; assay type: functional; settings: SNB-75, 48 h
[54] = system: ACHN; assay: Growth inhibition of human ACHN cells after 48 hrs by sulforhodamine B assay; assay type: functional
[55] = system: HCC 2998; assay: Growth inhibition of human HCC2998 cells after 48 hrs by sulforhodamine B assay; assay type: functional; settings: HCC 2998, 48 h
[56] = system: NCI-H460; assay: Growth inhibition of human NCI-H460 cells after 48 hrs by sulforhodamine B assay; assay type: functional; settings: NCI-H460, 48 h
[57] = system: LOX IMVI; assay: Growth inhibition of human LOXIMVI cells after 48 hrs by sulforhodamine B assay; assay type: functional
[58] = system: SK-MEL-28; assay: Growth inhibition of human SK-MEL-28 cells after 48 hrs by sulforhodamine B assay; assay type: functional; settings: SK-MEL-28, 48 h
[59] = system: OVCAR-5; assay: Growth inhibition of human OVCAR5 cells after 48 hrs by sulforhodamine B assay; assay type: functional; settings: OVCAR-5, 48 h
[60] = system: HL-60; assay: Growth inhibition of human HL-60(TB) cells after 48 hrs by sulforhodamine B assay; assay type: functional; settings: HL-60, 48 h
[61] = system: T47D; assay: Growth inhibition of human T47D cells after 48 hrs by sulforhodamine B assay; assay type: functional
[62] = system: UACC-62; assay: Growth inhibition of human UACC62 cells after 48 hrs by sulforhodamine B assay; assay type: functional; settings: UACC-62, 48 h

## C[C@H]1[C@H](OCCCCO[C@H]2O[C@@H]3O[C@@]4(C)CC[C@H]5[C@H](C)CC[C@@H]([C@H]2C)[C@@]35OO4)O[C@@H]2O[C@@]3(C)CC[C@H]4[C@H](C)CC[C@@H]1[C@@]24OO3
[1]
  GI50: 15 nM
[2]
  selectivity ratio: 43
[3]
  GI50: 44 nM
[4]
  GI50: 8 nM
[5]
  GI50: 10 nM
[6]
  GI50: 16 µM
[7]
  GI50: 214 nM
[8]
  GI50: 107 nM
[9]
  GI50: 16 nM
[10]
  GI50: 353 nM
[11]
  GI50: 5.07 µM
[12]
  GI50: 58 nM
[13]
  IC50: 14.1 µM
[14]
  GI50: 5.62 µM
[15]
  GI50: 16 nM
[16]
  GI50: < 5 nM
[17]
  GI50: 318 nM
[18]
  GI50: 22 nM
[19]
  GI50: 6.56 µM
[20]
  GI50: 5.77 µM
[21]
  IC50: 17.7 µM
[22]
  GI50: 210 nM
[23]
  GI50: 203 nM
[24]
  GI50: 381 nM
[25]
  GI50: 43 nM
[26]
  GI50: 9.8 µM
[27]
  GI50: 20 nM
[28]
  GI50: 220 nM
[29]
  GI50: 148 nM
[30]
  GI50: 869 nM
[31]
  GI50: 7 nM
[32]
  GI50: 7.21 µM
[33]
  GI50: 6.4 µM
[34]
  GI50: 15 nM
[35]
  GI50: 148 nM
[36]
  GI50: 69 nM
[37]
  GI50: 23 nM
[38]
  GI50: 133 nM
[39]
  GI50: 25 nM
[40]
  GI50: 35 nM
[41]
  selectivity ratio: > 54
[42]
  GI50: 12 nM
[43]
  GI50: 12 nM
[44]
  CC50 at 48 h: > 764 µM
[45]
  GI50: 11 nM
[46]
  GI50: 18 nM
[47]
  GI50: 12 nM
[48]
  GI50: 115 nM
[49]
  GI50: 42 µM
[50]
  GI50: 47 nM
[51]
  GI50: < 5 nM
[52]
  GI50: 34 nM
[53]
  GI50: 8.05 µM
[54]
  GI50: 31 nM
[55]
  GI50: 365 nM
[56]
  GI50: 4.23 µM
[57]
  GI50: 8 nM
[58]
  GI50: 8.82 µM
[59]
  GI50: 65 nM
[60]
  GI50: 12 nM
[61]
  GI50: < 5 nM
[62]
  GI50: 215 nM

## C[C@H]1[C@@H](O[C@H]2O[C@@H]3O[C@@]4(C)CC[C@H]5[C@H](C)CC[C@@H]([C@H]2C)[C@@]35OO4)O[C@@H]2O[C@@]3(C)CC[C@H]4[C@H](C)CC[C@@H]1[C@@]24OO3
[2]
  selectivity ratio: > 73
[13]
  IC50: 6.9 µM
[21]
  IC50: 11.8 µM
[41]
  selectivity ratio: > 125
[44]
  CC50 at 48 h: > 864 µM
